These results are taken from US12685732B2, “Composition for improving, preventing or treating muscular disorders including sulfonamide-based compounds” (The Industry & Academic Cooperation in Chungnam National …, priority 2022, dated 2026).

Series [1] deals with C2C12-PHF20/YY1-promoter-GFP cell line. The series can be described thus: HTS system: GFP (green luminescence) in PHF20-overexpressing myoblasts carrying YY1 promoter-GFP. Format: cell-based, mouse. The note with it: 10 μM compound, 24 h, after 250 ng/ml doxycycline 24 h; FDA-approved drug library of 1670 compounds. The text has this: C2C12 myoblasts, which were stable cells in which PHF20 was overexpressed, were transformed with a plasmid coexisting with a YY1 promoter and GFP, which inhibited muscle differentiation, to prepare a stable cell line. The degree of GFP signal suppression was quantified and measured, and the degree of muscle differentiation was used as a quantitative measurement index (FIG. 1).
Specifically, the C2C12-PHF20/YY1-promoter-GFP cell line according to Example 1 was dispensed in a 96-well plate at 0.5×10^5, cultured for 24 hours, and cells in a 70% confluent state were treated with 250 ng/ml of doxycycline for 24 hours, and then treated with each compound at a final concentration of 10 μM.
For fluorescence intensity, C2C12-PHF20/YY1-promoter-GFP cells were dispensed at 4×10^5 in a 6-well culture plate and cultured for 24 hours. […] Thereafter, the degree of green luminescence was confirmed using GloMax microplate readers explorer (Promega, Madison, Wisconsin, USA).

The nature of series [2]: Body weight in aging mouse model. In kind it is in vivo. The note with it: oral 5, 50, 500 mpk daily for 28 days, vs PBS. As for the experimental part: (§1) In order to confirm the treadmill exercise capacity according to a dose of sulfasalazine, the mice divided in 3-1 above were orally administered at 10:30 every day for 28 days with Group 1 of PBS (Hyclone Dulbecco's Phaosphate Buffer saline Cat. SH30028.02), Group 2 of sulfasalazine (Sigma, Cat. Nr S0883. CAS Number 599-79-1) 5 mpk, Group 3 of sulfasalazine 50 mpk, and Group 4 of sulfasalazine 500 mpk. In order to reduce an error on treadmill exercise ability, the mice were starved for 3 hours before measuring the treadmill, and then the treadmill was performed 4 times at 7-day intervals (0 days, 7 days, 14 days, and […]) according to Table 1 below.
For a total of 28 days, the body weight of the mouse was measured, and any change in body weight was confirmed.

The subject of series [3] is aging mouse model. In words: Treadmill exercise capacity in aging mouse model. In kind it is in vivo. The note with it: oral 5, 50, 500 mpk daily for 28 days, vs PBS (G1). As for the experimental part:
Treadmill adaptation was performed randomly for 3 days under conditions of grade 0, speed 15 (cm/sec), 10 minutes, electrical stimulation […] (defined as exhaustion when electrical stimulation occurred consecutive 4 times or more), and according to the treadmill result, mice with similar ability were distributed into each group and divided into 4 groups of 8 mice per group.
as §1

For series [4], the system named is aging mouse model. The series can be described thus: Rota Rod balance ability in aging mouse model. In kind it is in vivo. The note with it: oral 5, 50, 500 mg/kg daily for 28 days; days 0, 7, 14, 21, 28. As for the experimental part: (§2) In order to confirm the balance ability and the grip strength recovery effect of the Rota Rod according to a dose of sulfasalazine, 50-week-old C57BL/6J male mice were divided into Group 1 of PBS, Group 2 of sulfasalazine 5 mg/kg, Group 3 of sulfasalazine 50 mg/kg, and Group 4 of sulfasalazine 500 mg/kg, and orally administered every day at 10 am for 28 days, and then the body weight was measured.
(§3) The Rota Rod was measured on days 0, 7, 14, 21, and 28 with the animal group constructed in Group 2 under the conditions shown in Table 2 below, and the results were shown in FIG. 11 ((*) p≤0.05 vs G1). In the same animal group as the Rota Rod, the grip strength was measured on the 2 paws and 4 paws of the mouse on days 0, 9, 16, 23, and 28, and the results were shown in FIGS. 12A and 12B.

Series [5] relates to aging mouse model. In words: Grip strength in aging mouse model. In kind it is in vivo. The note with it: oral 5, 50, 500 mg/kg daily for 28 days; vs control Group 1. Here is the method: as §2, §3
Series [6] in a line: Body weight in high-fat diet CTX-induced sarcopenia mouse model. In kind it is in vivo. The note with it: oral 5, 50, 500 mg/kg daily for 14 days. Here is the method:
(§4) In order to construct a high-fat diet CTX-induced sarcopenia mouse model, for 23-week-old C57BL/6J male mice subjected to 60% HFD for 19 weeks, cardiotoxin (LATOXAN, Portes-lés-Valence, France) was dissolved at 1 mg/ml in PBS to make a high-concentration stock solution. For application to mice, the stock solution was diluted again in PBS (Hyclone Dulbecco's Phaosphate Buffer saline Cat. SH30028.02) to a final concentration of 0.03 mg/ml and used, and intramuscularly injected into both quadriceps muscles of the mouse using a 1 ml syringe (24 G) to construct the high-fat diet CTX-induced sarcopenia mouse model.
(§5) Five groups of Group 1 of orally administering PBS to a high-fat diet mouse without injecting CTX, Group 2 of orally administering PBS to a high-fat diet mouse injected with CTX, Group 3 of orally administering sulfasalazine 5 mg/kg to the high-fat diet mouse injected with CTX, Group 4 of orally administering sulfasalazine 50 mg/kg to the high-fat diet mouse injected with CTX, and Group 5 of orally administering sulfasalazine 500 mg/kg to the high-fat diet mouse injected with CTX were divided and orally administered at 10 am every day for 14 days, and the body weights were measured and the results were shown in FIG. 13.

Series [7] relates to high-fat diet CTX-induced sarcopenia mouse model. The series can be described thus: Rota Rod balance ability in high-fat diet CTX-induced sarcopenia mouse model. The note with it: oral 5, 50, 500 mg/kg daily for 14 days; days 4, 8, 12; vs group injected with CTX. Format: in vivo. As for the experimental part:
as §4
as §5, with “13. […]” for “13.”
In general terms: The rotarod test checks motor coordination on a turning rod.

The test system is the same in series [8]. The series can be described thus: Grip strength in high-fat diet CTX-induced sarcopenia mouse model. In kind it is in vivo. The note with it: oral 5, 50, 500 mg/kg daily for 14 days; days 5, 9, 13; vs group injected with CTX. As for the experimental part: as §4
as §5, with “13. […]” for “13.”

The nature of series [9]: Body weight in Velcro injured sarcopenia mouse model. In kind it is in vivo. The note with it: oral 5, 50, 500 mg/kg daily for 14 days. The text has this: (§6) The left leg of an 8-week-old C57BL/6J male mouse was anesthetized with isoflurane, the entire leg was wound from the ankle with a 5 cm sports tape, and then wound and fixed with a Velcro with a width of 10 mm, and the Velcro condition was checked every day for 14 days (FIG. 16). Meanwhile, in the present disclosure, Velcro injury means that muscle damage is caused by such Velcro by winding the muscle with the Velcro so as not to move.
(§7) In order to confirm the amount of treadmill exercise according to the dose of sulfasalazine, Group 1 (n=5) of orally administering PBS to 8-week-old C57BL/6J male mice without injury, Group 2 (n=5) of orally administering PBS to mice with Velcro injury, Group 3 (n=5) of orally administering sulfasalazine 5 mg/kg to mice with Velcro injury, Group 4 (n=5) of orally administering sulfasalazine 50 mg/kg to mice with Velcro injury, and Group 5 (n=5) of orally administering sulfasalazine 500 mg/kg to mice with Velcro injury were divided and orally administered at 10 am every day for 14 days, and the body weights were measured and the results were illustrated in FIG. 18. […]
For a total of 14 days, the body weights of the mice were measured, and any change in body weight was confirmed.

Series [10] deals with Velcro injured sarcopenia mouse model. The series can be described thus: Treadmill exercise capacity in Velcro injured sarcopenia mouse model. In kind it is in vivo. The note with it: oral 5, 50, 500 mg/kg; days 0, 3, 6, 10, 14; after day 6 of administration.
From the text: as §6, §7

For the compound `Nc1ccc(S(=O)(=O)Nc2ncccn2)cc1` [sulfadiazine], in series [1], the “degree of green luminescence (GFP inhibition) in screening” value (“degree … (GFP inhibition) in screening” below) is reported as “effect of reducing green luminescence”.

For the compound `COc1cc(NS(=O)(=O)c2ccc(N)cc2)nc(OC)n1` [sulfadimethoxine], the “degree … (GFP inhibition) in screening” value in [1] is on record as “effect of reducing green luminescence”.

As to `COc1ncnc(NS(=O)(=O)c2ccc(N)cc2)c1OC` [sulfadoxin], the “degree … (GFP inhibition) in screening” value in series [1] is “effect of reducing green luminescence”.

With `N=C(N)NS(=O)(=O)c1ccc(N)cc1` [sulfaguanidine], in series [1], the “degree … (GFP inhibition) in screening” value is recorded as “effect of reducing green luminescence”.

Regarding `COc1cnc(NS(=O)(=O)c2ccc(N)cc2)nc1` [sulfameter], in series [1], the “degree … (GFP inhibition) in screening” value is “effect of reducing green luminescence”.

Consider `Cc1nnc(NS(=O)(=O)c2ccc(N)cc2)s1` [sulfamethizole], for which, in series [1], the “degree … (GFP inhibition) in screening” value is on record as “effect of reducing green luminescence”.

Take `Nc1ccc(S(N)(=O)=O)cc1` [sulfanilamide]: the “degree … (GFP inhibition) in screening” value in series [1] was “effect of reducing green luminescence”.

In the case of `Nc1ccc(S(=O)(=O)Nc2ccnn2-c2ccccc2)cc1` [sulfaphenazole], the “degree … (GFP inhibition) in screening” value in [1] was “effect of reducing green luminescence”.

For the compound `Nc1ccc(S(=O)(=O)Nc2ccccn2)cc1` [sulfapyridine], the “degree … (GFP inhibition) in screening” value in [1] is given as “effect of reducing green luminescence”.

As for `O=C(O)c1cc(/N=N/c2ccc(S(=O)(=O)Nc3ccccn3)cc2)ccc1O` [sulfasalazine], the “degree … (GFP inhibition) in screening” value in [1] is recorded as “effect of reducing green luminescence”. The body weight entry in [2], in [6] and in series [9] was “no difference in body weight was observed” each time. The “treadmill exercise capacity (latency to fall)” value in the series with aging mouse model [3] is “the higher the sulfasalazine dose, the higher the treadmill exercise capacity”. Also, the “balance ability on the Rota Rod” value (in the series on aging mouse model [4]; in [7]) was “recovery of balance ability of the mouse on the Rota Rod was improved” each time. The “grip strength, 2 paws” value (with aging mouse model [5]; in series [8]) was “grip strength was improved with the increase in sulfasalazine dose” in each case. Further, the “grip strength, 4 paws” value (with aging mouse model [5]; in series [8]) was “grip strength was improved with the increase in sulfasalazine dose” each time. For the same compound, the treadmill running distance entry in [10] was “treadmill running distances were increased as the administration period was increased”. For the same compound, the treadmill running time entry in series [10] is recorded as “treadmill running time was increased as the administration period was increased”.

For the compound `Nc1ccc(S(=O)(=O)Nc2nccs2)cc1` [sulfathiazole], the “degree … (GFP inhibition) in screening” value in series [1] was “effect of reducing green luminescence”.
